We go through 5 molecules from patent US20250304567A1, “PYRROLIDIONE DERIVATIVES AS INHIBITORS OF NF KAPPA B INDUCING KINASE” (priority 2022, published 2025).

Where two headings read alike, the source gives them in different places.

The target of experiment [1] is Recombinant Human NF-kappaB-Inducing Kinase (NIK/MAP3K14) (Homo sapiens, UniProt Q99558). The experiment can be described thus: Inhibition of auto-phosphorylation of recombinant human NIK/MAP3K14 activity (AlphaScreen). The format is biochemical. Particulars: 5 μM ATP, 1 nM NIK, average if tested more than once. In a few lines: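 GST-tagged NIK (1 nM) auto-phosphorylation with 5 μM ATP, 2 h at 25 °C, pH 7.5 Tris buffer, 0.7% DMSO; stopped with anti-phospho-IKK Ser176/180 antibody and read by AlphaScreen. Signal normalized to full-activity and no-enzyme/no-ATP controls; IC50 from sigmoidal fit of % inhibition vs log concentration.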
Background: Bead proximity is the source of the signal in Alpha formats.

Experiment [2] has as its system p-IKKa levels in L363 (NIK translocated multiple myeloma) cells. The experiment can be described thus: Effect of compounds on p-IKKa levels in L363 (NIK translocated multiple myeloma) cells (AlphaLISA SureFire Ultra p-IKKa Ser176/180). The format is cell-based, human. Particulars: average if tested more than once, read-out: Assay 2 IC50. In a few lines:
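L363 multiple myeloma cells, BAFF-stimulated overnight (250 ng/ml), then 6 h at 37 °C with compound (11-point 1:3 series, 0.3% DMSO) plus BAFF and 10 μM MG132. p-IKKa Ser176/180 read by AlphaLISA SureFire Ultra; IC50 from sigmoidal fit normalised to stimulated and unstimulated controls.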

[3] abbreviates: Homo sapiens, L-363, p-IKKa levels in L363 cells.

Recombinant Human NF-kappaB-Inducing Kinase (NIK/MAP3K14), sequence (Q99558 whole entry): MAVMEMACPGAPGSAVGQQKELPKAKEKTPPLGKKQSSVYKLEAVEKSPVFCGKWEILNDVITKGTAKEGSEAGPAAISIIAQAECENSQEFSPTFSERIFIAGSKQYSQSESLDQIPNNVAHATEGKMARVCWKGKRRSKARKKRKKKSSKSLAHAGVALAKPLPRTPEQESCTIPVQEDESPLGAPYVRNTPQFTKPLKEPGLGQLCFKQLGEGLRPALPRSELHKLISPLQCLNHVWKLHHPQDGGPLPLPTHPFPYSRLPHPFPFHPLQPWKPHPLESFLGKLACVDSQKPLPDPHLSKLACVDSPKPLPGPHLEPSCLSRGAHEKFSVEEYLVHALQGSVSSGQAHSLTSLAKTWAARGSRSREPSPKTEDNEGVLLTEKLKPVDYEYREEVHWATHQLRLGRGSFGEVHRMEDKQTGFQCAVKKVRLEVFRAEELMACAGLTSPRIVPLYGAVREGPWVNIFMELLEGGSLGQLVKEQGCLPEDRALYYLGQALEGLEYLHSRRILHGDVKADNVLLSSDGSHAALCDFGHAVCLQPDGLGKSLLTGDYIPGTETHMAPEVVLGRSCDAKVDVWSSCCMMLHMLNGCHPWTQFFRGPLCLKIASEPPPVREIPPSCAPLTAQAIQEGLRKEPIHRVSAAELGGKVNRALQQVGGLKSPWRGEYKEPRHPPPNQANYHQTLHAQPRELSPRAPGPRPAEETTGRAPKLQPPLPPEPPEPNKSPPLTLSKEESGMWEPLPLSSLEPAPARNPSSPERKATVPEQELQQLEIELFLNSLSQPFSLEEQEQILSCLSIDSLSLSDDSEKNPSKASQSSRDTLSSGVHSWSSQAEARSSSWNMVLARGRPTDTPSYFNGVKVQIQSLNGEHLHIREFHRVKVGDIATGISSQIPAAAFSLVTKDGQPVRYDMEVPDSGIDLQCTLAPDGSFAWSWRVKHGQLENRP

Usually IC50 stands for the concentration at which inhibition is half-maximal. Consider `CN1CC[C@@](O)(c2cccc(-c3csc(-c4ccnc(Nc5ccn(CC6CC6)n5)n4)n3)c2)C1=O` [Example 289, (R)-3-(3-(2-(2-((1-(cyclopropylmethyl)-1H-pyrazol-3-yl)amino)pyrimidin-4-yl)thiazol-4-yl)phenyl)-3-hydroxy-1-methylpyrrolidin-2-one], for which the IC50 in experiment [1] and in experiment [2] (setting [3]) was more than 501 nM each time.
For the molecule `C[C@H](Nc1nccc(-c2nc(-c3cc([C@]4(O)CCN(C)C4=O)ccn3)cs2)n1)c1ccnn1C` [Example 290, (R)-3-Hydroxy-1-methyl-3-(2-(2-(2-(((S)-1-(1-methyl-1H-pyrazol-5-yl)ethyl)amino)pyrimidin-4-yl)thiazol-4-yl)pyridin-4-yl)pyrrolidin-2-one], the results for the half-maximal inhibitory concentration (IC50) in experiment [1] and in experiment [2] (setting [3]) were less than 100 nM and 100 to 500 nM, respectively.
The like results for `C[C@@H](Nc1nccc(-c2nc(-c3cc([C@]4(O)CCN(C)C4=O)ccn3)cs2)n1)c1ccnn1C` [Example 291, (R)-3-Hydroxy-1-methyl-3-(2-(2-(2-(((R)-1-(1-methyl-1H-pyrazol-5-yl)ethyl)amino)pyrimidin-4-yl)thiazol-4-yl)pyridin-4-yl)pyrrolidin-2-one] were, in that order, less than 100 nM and 100 to 500 nM.
Consider `Cc1nn(CC(F)F)cc1Nc1nccc(-n2ccc(-c3cc([C@]4(O)CCN(C)C4=O)ccn3)n2)n1` [Example 292, (R)-3-(2-(1-(2-((1-(2,2-Difluoroethyl)-3-methyl-1H-pyrazol-4-yl)amino)pyrimidin-4-yl)-1H-pyrazol-3-yl)pyridin-4-yl)-3-hydroxy-1-methylpyrrolidin-2-one], for which the IC50 in experiment [1] and in experiment [2] (setting [3]) was less than 100 nM each time.
“(trans)-3-hydroxy-1-methyl-3-(3-(4-(2-((1-methyl-1H-pyrazol-3-yl)amino)pyrimidin-4-yl)thiazol-2-yl)phenyl)-5-(trifluoromethyl)pyrrolidin-2-one [Example 37]”: the IC50 in experiment [1] and in experiment [2] (p-IKKa levels in L363 cells) was more than 501 nM each time.
